# Assay results from patent US7829665B2 (priority 2005, dated 2010).
# Where two headings read alike, the source gives them in different places.
# Experiments:
# [1] = molecular target: T1, full-length NS3/NS4A-2 (HCV NS3 protease) (Hepatitis C virus genotype 1a, UniProt P27958); assay: NS3-NS4 protease assay / NS3 inhibition assay (RETS1 substrate, fluorescence kinetic read); type: biochemical
# T1 construct: Recombinant E. coli or Baculovirus full-length NS3 was diluted to 3.33 μM with assay buffer; made in house; host or cells: E. coli or baculovirus (BV) expression system
# In short: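 Full-length NS3 from E. coli (2 nM in assay) or baculovirus (3 nM) was precomplexed with excess NS4A-2 peptide, then preincubated 10 min at room temperature with serially diluted compounds starting at 50 microM. Reaction was started with RETS1 substrate at 8 μM before addition and read kinetically for 30 min (ex 335/em 495 nm). Four-parameter IC50s were converted to Ki by Cheng-Prusoff using Km 2.03 μM (E. coli) or 1.74 μM (BV).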
# [2] = test system: HCV sub-genomic replicon in GS4.3 cells (HuH-7 hepatoma cells); assay: Quantitation by ELISA of Neomycin phosphotransferase II (NPTII) in the HCV sub-genomic replicon, GS4.3; type: cell-based, hepatitis C virus; details: Hepatitis C virus, Huh-7; GS4.3 cells, 72 h incubation, NPTII ELISA; read-out: Replicon EC50
# Procedure: The HCV sub-genomic replicon (1377/NS3-3′, accession No. AJ242652), stably maintained in HuH-7 hepatoma cells, was created by Lohmann et al. Science 285: 110-113 (1999). The replicon-containing cell culture, designated GS4.3, was obtained from Dr. Christoph Seeger of the Institute for Cancer Research, Fox Chase Cancer Center, Philadelphia, Pa.
# GS4.3 cells were maintained at 37° C., 5% CO2, in DMEM (Gibco 11965-092) supplemented with L-glutamine 200 mM (100×) (Gibco25030-081), non-essential amino acids (NEAA) (Biowhittaker 13-114E), heat-inactivated (HI) Fetal Bovine Serum (FBS) (Hyclone SH3007.03) and 750 μg/ml geneticin (G418) (Gibco 10131-035). Cells were sub-divided 1:3 or 4 every 2-3 days.
# 24 h prior to the assay, GS4.3 cells were collected, counted, and plated in 96-well plates (Costar 3585) at 7500 cells/well in 100 μl standard maintenance medium (above) and incubated in the conditions above. To initiate the assay, culture medium was removed, cells were washed once with PBS (Gibco 10010-023) and 90 μl Assay Medium (DMEM, L-glutamine, NEAA, 10% HI FBS, no G418) was added. Inhibitors were made as a 10× stock in Assay Medium, (3-fold dilutions from 10 μM to 56 pM final concentration, final DMSO concentration 1%), 10 μl were added to duplicate wells, plates were rocked to mix, and incubated as above for 72 h.
# An NPTII Elisa kit was obtained from AGDIA, Inc. (Compound direct ELISA test system for Neomycin Phosphotransferase II, PSP 73000/4800). Manufacturer's instructions were followed, with some modifications. 10×PEB-1 lysis buffer was made up to include 500 μM PMSF (Sigma P7626, 50 mM stock in isopropanol). After 72 h incubation, cells were washed once with PBS and 150 μl PEB-1 with PMSF was added per well. Plates were agitated vigorously for 15 minutes, room temperature, then frozen at −70° C. Plates were thawed, lysates were mixed thoroughly, and 100 μl were applied to an NPTII Elisa plate. A standard curve was made. Lysate from DMSO-treated control cells was pooled, serially diluted with PEB-1 with PMSF, and applied to duplicate wells of the ELISA plate, in a range of initial lysate amount of 150 ul-2.5 ul. In addition, 100 μl buffer alone was applied in duplicate as a blank. Plates were sealed and gently agitated at room temperature for 2 h. Following capture incubation, the plates were washed 5×300 μl with PBS-T (0.5% Tween-20, PBS-T was supplied in the ELISA kit). For detection, a 1× dilution of enzyme conjugate diluent MRS-2 (5×) was made in PBS-T, into which 1:100 dilutions of enzyme conjugates A and B were added, as per instructions. Plates were resealed, and incubated with agitation, covered, room temperature, for 2 h. The washing was then repeated and 100 μl of room temperature TMB substrate was added. After approximately 30 minutes incubation (room temperature, agitation, covered), the reaction was stopped with 50 μl 3M sulfuric acid. Plates were read at 450 nm on a Molecular Devices Versamax plate reader.
# Inhibitor effect was expressed as a percentage of DMSO-treated control signal, and inhibition curves were calculated using a 4-parameter equation: y=A+((B−A)/(1+((C/x)^D))), where C is half-maximal activity or EC50.
# [3] = recombinant E. coli or Baculovirus full-length NS3 with NS4A-2, read-out: NS3-NS4 IC50
# T1 sequence (P27958 1027-1657): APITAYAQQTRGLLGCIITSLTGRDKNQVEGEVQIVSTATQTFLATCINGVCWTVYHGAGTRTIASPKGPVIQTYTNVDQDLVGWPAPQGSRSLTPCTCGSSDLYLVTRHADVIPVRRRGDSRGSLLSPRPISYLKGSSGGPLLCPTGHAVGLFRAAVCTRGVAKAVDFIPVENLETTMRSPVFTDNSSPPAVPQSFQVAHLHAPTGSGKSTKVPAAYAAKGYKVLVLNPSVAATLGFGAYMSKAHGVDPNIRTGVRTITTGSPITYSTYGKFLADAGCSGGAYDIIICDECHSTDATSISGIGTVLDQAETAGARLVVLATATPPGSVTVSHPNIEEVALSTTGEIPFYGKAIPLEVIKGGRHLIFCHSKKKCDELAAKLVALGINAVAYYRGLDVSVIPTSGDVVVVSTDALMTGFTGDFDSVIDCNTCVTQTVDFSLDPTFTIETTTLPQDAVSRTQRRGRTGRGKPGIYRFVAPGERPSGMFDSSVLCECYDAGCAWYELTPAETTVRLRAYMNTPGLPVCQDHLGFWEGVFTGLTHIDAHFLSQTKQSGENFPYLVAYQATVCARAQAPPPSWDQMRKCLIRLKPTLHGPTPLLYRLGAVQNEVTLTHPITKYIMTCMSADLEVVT
Structure (SMILES),"IC50 [1, 3] [nM]",EC50 [2] [nM],IC50 [1] [nM]
CC(C)(C)OC(=O)N[C@H]1CCCCC/C=C\[C@@H]2C[C@@]2(C(=O)O)NC(=O)[C@@H]2C[C@@H](OC(=O)N3Cc4ccc(OCCn5cccn5)cc4C3)CN2C1=O [Compound 130],< 100,< 10000,
CC(C)(C)OC(=O)N[C@H]1CCCCC/C=C\[C@@H]2C[C@@]2(C(=O)O)NC(=O)[C@@H]2C[C@@H](OC(=O)N3Cc4ccc(OCCNC5CC5)cc4C3)CN2C1=O [Compound 131],< 100,< 10000,
O=C(N[C@H]1CCCCC/C=C\[C@@H]2C[C@@]2(C(=O)NS(=O)(=O)C2CC2)NC(=O)[C@@H]2C[C@@H](OC(=O)N3Cc4ccc(OCCN5CCOCC5)cc4C3)CN2C1=O)OC1CCCC1 [Compound 132],< 100,< 100,
CN(C)CCOc1ccc2c(c1)CN(C(=O)O[C@@H]1C[C@H]3C(=O)N[C@]4(C(=O)O)C[C@H]4/C=C\CCCCC[C@H](NC(=O)OC4CCCC4)C(=O)N3C1)C2 [Compound 133],< 100,< 10000,
CN(C)CCOc1ccc2c(c1)CN(C(=O)O[C@@H]1C[C@H]3C(=O)N[C@]4(C(=O)NS(=O)(=O)C5CC5)C[C@H]4/C=C\CCCCC[C@H](NC(=O)OC4CCCC4)C(=O)N3C1)C2 [Compound 134],< 100,< 100,
O=C(CCC(F)(F)F)N[C@H]1CCCCC/C=C\[C@@H]2C[C@@]2(C(=O)O)NC(=O)[C@@H]2C[C@@H](OC(=O)N3Cc4cccc(F)c4C3)CN2C1=O [Compound 135],< 100,< 10000,
O=C(CCC(F)(F)F)N[C@H]1CCCCC/C=C\[C@@H]2C[C@@]2(C(=O)O)NC(=O)[C@@H]2C[C@@H](OC(=O)N3Cc4ccccc4C3)CN2C1=O [Compound 136],< 100,> 10000,
O=C(N[C@H]1CCCCC/C=C\[C@@H]2C[C@@]2(C(=O)O)NC(=O)[C@@H]2C[C@@H](OC(=O)N3Cc4cccc(Cl)c4C3)CN2C1=O)OC1CCCC1 [Compound 138],< 100,< 1000,
CC(C)(C)OC(=O)N[C@H]1CCCCC/C=C\[C@@H]2C[C@@]2(C(=O)O)NC(=O)[C@@H]2C[C@@H](OC(=O)Nc3nc4ccccc4s3)CN2C1=O [Compound 139],< 1000,> 10000,
CC(C)(C)OC(=O)N[C@H]1CCCCC/C=C\[C@@H]2C[C@@]2(C(=O)NS(=O)(=O)C2CC2)NC(=O)[C@@H]2C[C@@H](OC(=O)Nc3nc4ccccc4s3)CN2C1=O [Compound 140],< 100,< 1000,
O=C(N[C@H]1CCCCC/C=C\[C@@H]2C[C@@]2(C(=O)NS(=O)(=O)C2CC2)NC(=O)[C@@H]2C[C@@H](OC(=O)N3Cc4cccc(Cl)c4C3)CN2C1=O)OC1CCCC1 [Compound 141],< 100,< 100,
O=C(CCC(F)(F)F)N[C@H]1CCCCC/C=C\[C@@H]2C[C@@]2(C(=O)O)NC(=O)[C@@H]2C[C@@H](OC(=O)N3Cc4cccc(Cl)c4C3)CN2C1=O [Compound 142],< 100,< 10000,
O=C(CCC(F)(F)F)N[C@H]1CCCCC/C=C\[C@@H]2C[C@@]2(C(=O)NS(=O)(=O)C2CC2)NC(=O)[C@@H]2C[C@@H](OC(=O)N3Cc4cccc(Cl)c4C3)CN2C1=O [Compound 143],< 100,< 100,
CC(C)(C)OC(=O)N[C@H]1CCCCC/C=C\[C@@H]2C[C@@]2(C(=O)O)NC(=O)[C@@H]2C[C@@H](OC(=O)N3Cc4c(Cl)ccc(Cl)c4C3)CN2C1=O [Compound 144],< 100,< 10000,
CC(C)(C)OC(=O)N[C@H]1CCCCC/C=C\[C@@H]2C[C@@]2(C(=O)NS(=O)(=O)C2CC2)NC(=O)[C@@H]2C[C@@H](OC(=O)N3Cc4c(Cl)ccc(Cl)c4C3)CN2C1=O [Compound 145],< 100,< 100,
O=C(N[C@H]1CCCCC/C=C\[C@@H]2C[C@@]2(C(=O)O)NC(=O)[C@@H]2C[C@@H](OC(=O)N3Cc4ccncc4C3)CN2C1=O)OC1CCCC1 [Compound 146],< 100,> 10000,
C[C@H](NC(=O)O[C@@H]1C[C@H]2C(=O)N[C@]3(C(=O)NS(=O)(=O)C4CC4)C[C@H]3/C=C\CCCCC[C@H](NC(=O)OC(C)(C)C)C(=O)N2C1)c1ccc(F)cn1 [Compound 149],< 100,> 10000,
O=C(N[C@H]1CCCCC/C=C\[C@@H]2C[C@@]2(C(=O)NS(=O)(=O)C2CC2)NC(=O)[C@@H]2C[C@@H](OC(=O)N3Cc4ccncc4C3)CN2C1=O)OC1CCCC1 [Compound 155],< 100,< 1000,
N[C@H]1CCCCC/C=C\[C@@H]2C[C@@]2(C(=O)NS(=O)(=O)C2CC2)NC(=O)[C@@H]2C[C@@H](OC(=O)N3Cc4c(Cl)ccc(Cl)c4C3)CN2C1=O [Compound 156],,< 1000,< 100
Cc1ccccc1S(=O)(=O)NC(=O)[C@@]12C[C@H]1/C=C\CCCCC[C@H](NC(=O)OC(C)(C)C)C(=O)N1C[C@H](OC(=O)N3Cc4cccc(F)c4C3)C[C@H]1C(=O)N2 [Compound 157],< 100,< 100,
CC(C)(C)OC(=O)N[C@H]1CCCCC/C=C\[C@@H]2C[C@@]2(C(=O)NS(=O)(=O)C2CC2)NC(=O)[C@@H]2C[C@@H](OC(=O)N3Cc4cccc(N5CCOCC5)c4C3)CN2C1=O [Compound 158],< 100,< 100,
Cc1ccccc1S(=O)(=O)NC(=O)[C@@]12C[C@H]1/C=C\CCCCC[C@H](N)C(=O)N1C[C@H](OC(=O)N3Cc4cccc(F)c4C3)C[C@H]1C(=O)N2 [Compound 159],,< 1000,< 100
CC(C)(C)OC(=O)N[C@H]1CCCCC/C=C\[C@@H]2C[C@@]2(C(=O)NS(=O)(=O)C2CC2)NC(=O)[C@@H]2C[C@@H](OC(=O)N3Cc4cccc(Br)c4C3)CN2C1=O [Compound 160],< 100,< 100,
CC(C)(C)OC(=O)N[C@H]1CCCCC/C=C\[C@@H]2C[C@@]2(C(=O)NS(=O)(=O)C2(Cc3ccccc3)CC2)NC(=O)[C@@H]2C[C@@H](OC(=O)N3Cc4cccc(Cl)c4C3)CN2C1=O [Compound 161],< 100,< 100,
CC(C)(C)OC(=O)N[C@H]1CCCCC/C=C\[C@@H]2C[C@@]2(C(=O)NS(=O)(=O)c2cc(Cl)sc2Cl)NC(=O)[C@@H]2C[C@@H](OC(=O)N3Cc4cccc(F)c4C3)CN2C1=O [Compound 162],< 100,< 100,
N[C@H]1CCCCC/C=C\[C@@H]2C[C@@]2(C(=O)NS(=O)(=O)C2(Cc3ccccc3)CC2)NC(=O)[C@@H]2C[C@@H](OC(=O)N3Cc4cccc(Cl)c4C3)CN2C1=O [Compound 163],,< 10000,< 100
CC(C)(C)OC(=O)N[C@H]1CCCCC/C=C\[C@@H]2C[C@@]2(C(=O)NS(=O)(=O)c2ccc(Cl)s2)NC(=O)[C@@H]2C[C@@H](OC(=O)N3Cc4cccc(Cl)c4C3)CN2C1=O [Compound 164],< 100,< 100,
CCOC1(S(=O)(=O)NC(=O)[C@@]23C[C@H]2/C=C\CCCCC[C@H](NC(=O)OC(C)(C)C)C(=O)N2C[C@H](OC(=O)N4Cc5cccc(Cl)c5C4)C[C@H]2C(=O)N3)CC1 [Compound 165],< 100,< 100,
CC(C)(C)OC(=O)N[C@H]1CCCCC/C=C\[C@@H]2C[C@@]2(C(=O)NS(=O)(=O)c2cccs2)NC(=O)[C@@H]2C[C@@H](OC(=O)N3Cc4cccc(Cl)c4C3)CN2C1=O [Compound 166],< 100,< 100,
